Where “and” joins values, the source holds several entries; their conditions need not be identical. Equal entries are not always repeated. Where two headings read alike, the source gives them in different places.
How the values were obtained:
[1] = tested on: stearoyl-CoA desaturase 1 (hSCD1); test: RT-qPCR hSCD1 mRNA in HepaRG cells; type: cell-based, human; details: 4 days, vs control
Experimental: (§1) Total RNA was extracted with the Nucleospin RNA isolation system purchased from Macherey-Nagel (Düren, Germany), which included a DNase treatment step. Quantification of isolated RNAs was assessed using a Nanodrop 1000 (Thermo Fisher Scientific, Waltham, MA). RNAs were reverse-transcribed into cDNAs using the High-Capacity cDNA Reverse Transcription Kit purchased from Applied Biosystems (Woolston, UK). Gene expression was assessed by real-time quantitative PCR analysis (RT-qPCR) using SYBR Green PCR Master Mix (Applied Biosystems) and a 384-well QuantStudio™ 7 Flex Real-Time PCR System (Thermo Fisher Scientific). Sequences of the primers used to measure gene expression are presented in Supplementary Table 3. Expression of GAPDH was chosen as reference and the 2^−ΔΔCt calculation method was used to express the relative expression of each selected gene.

ATP citrate lyase (ACLY) = test: RT-qPCR ACLY mRNA in HepaRG cells; type: cell-based, human; details: 4 days, vs control
Experimental: as §1

HepaRG cells [2] = test: Neutral lipids with Nile red in HepaRG cells; details: 4 days, selected concentrations (ATP loss < 30%, not above 100 × Cmax), vs control
Experimental: (§2) Briefly, HepaRG cells were seeded in 96-well plates at a density of 2.6 × 10^4 cells/cm^2 and were first incubated in William’s E medium supplemented with 10% FBS (50% FBS from Eurobio and 50% FBS from GE Healthcare), 100 U/mL penicillin, 100 μg/mL streptomycin, 2 mM glutamine, 5 μg/mL insulin, and 50 μM hydrocortisone hemisuccinate. […] During this 1-month period, the culture medium was renewed three times a week. […] HepaRG cells were next cultured in the same FBS/DMSO conditions and incubated for 4 days with each drug at different concentrations. Culture medium was renewed every day and all investigations were performed after 96 h (i.e., 24 h after the fourth treatment). These investigations were mostly performed in 96-well plates except for western blot analysis, for which 6-well plates were used. Experiments were carried out on passages 9 to 16. All drugs (except DPEN), etomoxir, lomitapide, tunicamycin, thapsigargin, and TUDCA were dissolved in DMSO. DPEN was dissolved in water.
(§3) Cells were then incubated with PBS containing 0.1 μg/mL Nile red for 30 min and washed once. […] For each well, four pictures were taken at a magnification of × 20 and analyzed with Columbus software (PerkinElmer) for quantification. These pictures were always taken in four different areas around the center of each well, and these areas were the same from one well to another, as programmed by the Columbus software. This software was also designed to count only living cells after exclusion of dying cells harboring nuclei with abnormal shape or altered Hoechst intensity. […] Neutral lipids were then normalized per number of nuclei and expressed relative to control cells. Examples of images used for neutral lipid quantification are shown in Supplementary Fig. 2.

[3] = tested on: de novo lipogenesis (DNL); test: DNL from [2-14C]acetic acid in HepaRG cells; type: cell-based, human; details: 4 days, vs control
Experimental: (§4) Experiments were carried out on passages 9 to 16. […] DPEN was dissolved in water.
DNL was assessed by measuring newly synthesized radiolabeled lipids from [2-^14C]acetic acid, using a protocol adapted from Byrne et al. ([2014]). Briefly, culture medium was removed and cells were washed with warm PBS. Next, cells were incubated for 3 h with phenol red-free William’s E medium containing 1% fatty acid-free BSA, [2-^14C]acetic acid (1850 Bq per well, corresponding to 19.4 pM) and 50 μM cold acetic acid. Medium was then gently removed and cells were washed with warm PBS before adding a mix of hexane/isopropanol (3:2; v/v). Cell culture plates were sealed and incubated for 1 h at room temperature for lipid extraction. After transfer of the plate content in 200-μL microtubes, hexane and PBS were added to have a hexane/isopropanol/PBS ratio of 6:2:3 (v/v/v). Microtubes were then centrifuged at 1000×g for 5 min and radiolabeled lipids were counted in the upper phase with a Tri-Carb 4910TR liquid scintillation counter (PerkinElmer). Results were normalized to total protein content and expressed in comparison to control cells.

HepaRG cells [4] = test: Cellular ATP level (CellTiter-Glo) in HepaRG cells; type: cell-based, human; details: 4 days, vs controls
Experimental: Cellular ATP level was measured using the CellTiter-Glo® Luminescent Cell Viability assay purchased from Promega (Charbonnières, France), according to the manufacturer’s instructions. Briefly, control and treated HepaRG cells were first washed with warm PBS and kept for 30 min at room temperature in phenol red-free William’s E medium. Cells were next incubated with the CellTiter-Glo® reagent for 10 min at room temperature. Cells were then transferred in opaque-walled multiwell plates and the luminescent signal was quantified using a POLARstar Omega microplate reader (BMG Labtech, Ortenberg, Germany). Results were expressed in comparison to control cells.

[5] = tested on: fatty acid translocase (FAT, also known as CD36); test: RT-qPCR FAT/CD36 mRNA in HepaRG cells; type: cell-based, human; details: 4 days
Experimental: as §1

[6] = treated patients, cited from earlier work
[7] = tested on: mitochondrial fatty acid oxidation (mtFAO); test: mtFAO with [U-14C]palmitic acid in HepaRG cells; type: cell-based, human; details: 4 days, vs control
Experimental: as §4
Results were normalized to total protein content determined using the Pierce BCA assay kit from Thermo Fischer Scientific (Waltham, MA). Results were expressed in comparison to control cells.

apoB secretion = test: apoB level in culture medium (ELISA), HepaRG cells; type: cell-based, human; details: 4 days; for Effect on apoB secretion: culture medium, vs control
Experimental: as §4
Twenty-four hours after the last treatment, cell supernatants were removed and stored at − 80 °C until use for apolipoprotein measurement. ApoB level was measured using the Human Apolipoprotein B ELISA^pro kit from Mabtech (Nacka Strand, Sweden), according to the manufacturer’s instructions. Briefly, 50 μL of samples were diluted 2× in Apo ELISA buffer before a 2-h incubation in the precoated strip plates provided in the kit. The plates were washed and incubated 1 h with the biotinylated monoclonal anti-human apoB (LDL-11-biotin) antibody. The plates were then washed and incubated 1 h with a streptavidin–horseradish peroxidase conjugated antibody. After another washing, 3,3′,5,5′-tetramethylbenzidine (TMB) was used as substrate for 15 min before adding a stop solution. Absorbance at 450 nm was then measured using a POLARstar Omega microplate reader (BMG Labtech, Ortenberg). ApoB level was calculated utilizing a four-parameter standard curve, and normalized to the total cellular protein content and expressed in comparison to control cells.

[8] = cited from earlier work; for Cmax: read-out: Maximum plasma concentration (Cmax) in patients
[9] = Maximum plasma concentration (Cmax) in patients; type: in vivo, human
apoC3 secretion = test: apoC3 level in culture medium (HTRF), HepaRG cells; type: cell-based, human; details: 4 days; for Effect on apoC3 secretion: culture medium, vs control
Experimental: as §2
Apolipoprotein C3 (apoC3) level was measured using the Human Apolipoprotein C3 kit from Cisbio Bioassays (Codolet, France), according to the manufacturer’s instructions. Briefly, 10 μL of supernatants was incubated with two different specific anti-human apoC3 antibodies, one donor and one acceptor. The detection principle of apoC3 is based on HTRF® (Homogeneous Time Resolved Fluorescence), a time-resolved FRET (Förster Resonance Energy Transfer) technology. After 2 h of incubation, light emission was measured with the Infinite F Nano+ microplate reader (Tecan, Männedorf, Switzerland). ApoC3 level was calculated utilizing standard curve, based on the ratio of A665 nm/A615 nm, and normalized to the total cellular protein content. Results were expressed in comparison to control cells.

[10] = tested on: fatty acid synthase (FASN); test: RT-qPCR FASN mRNA in HepaRG cells; type: cell-based, human; details: 4 days, vs control
Experimental: as §1

ERN1 (IRE1α) = test: RT-qPCR ERN1 mRNA in HepaRG cells; type: cell-based, human; details: 4 days, vs control
Experimental: as §1

[11] = tested on: acetyl-CoA carboxylase alpha (ACACA); test: RT-qPCR ACACA mRNA in HepaRG cells; type: cell-based, human; details: 4 days, vs control
Experimental: as §1

[12] = tested on: angiopoietin-like 3 (ANGPTL3); test: RT-qPCR ANGPTL3 mRNA in HepaRG cells; type: cell-based, human; details: 4 days, vs control
Experimental: as §1

[13] = tested on: microsomal triglyceride transfer protein (MTTP); test: RT-qPCR MTTP mRNA in HepaRG cells; type: cell-based, human; details: 4 days, vs control
Experimental: as §1

[14] = tested on: primary human hepatocytes (PHH); test: Neutral lipids with Nile red in primary human hepatocytes; type: cell-based; details: 4 days
Experimental: Primary human hepatocytes (PHH) were purchased from Biopredic International (Saint-Grégoire, France). Cells were seeded by the supplier in coated 96-well plates at a density of 5 × 10^4 cells/well. Upon receipt, culture medium was removed and replaced by William’s E medium supplemented as previously described for HepaRG cell differentiation, except for DMSO set at 1%. After 2–3 days, cells were treated as for HepaRG cells. For HepaRG cells and PHH, cells were always maintained in incubators at 37 °C with 5% CO2 and saturating humidity.
as §3

[15] = tested on: apolipoprotein C3 (APOC3); test: RT-qPCR APOC3 mRNA in HepaRG cells; type: cell-based, human; details: 4 days, vs control
Experimental: as §1

apolipoprotein B (APOB) = test: RT-qPCR APOB mRNA in HepaRG cells; type: cell-based, human; details: 4 days, vs control
Experimental: as §1

[16] = high dose chemotherapy, ref Holmboe L et al., Br J Clin Pharmacol. 2012;73(1):106-14
[17] = rheumatoid arthritis treatment, ref Hoekstra M et al., J Rheumatol. 2004;31(4):645-8
[18] = worked out from cited Cmax in patients

Compound	ACLY mRNA level (ATP citrate lyase (ACLY))	Accumulation of neutral lipids (steatosis) (HepaRG cells [2])	Effect on DNL [3]	Loss of cellular ATP relative to the maximum concentration selected for the study (HepaRG cells [4])	Effect on mtFAO [7]	Effect on apoB secretion (apoB secretion)	Maximum plasma concentration (Cmax) in patients ([8]; patients, ref given per drug)	Cmax ([8]; patients, ref given per drug)	Effect on apoC3 secretion (apoC3 secretion)	ERN1 (IRE1α) mRNA level (ERN1 (IRE1α))	Concentration corresponding to 100xCmax [9, 18]	other results
CCCCc1oc2ccccc2c1C(=O)c1cc(I)c(OCCN(CC)CC)c(I)c1 [AMIO, amiodarone]	enhanced mRNA level	significant accumulation of neutral lipids	increased DNL									hSCD1 mRNA level [1]: enhanced mRNA level
CN(Cc1cnc2nc(N)nc(N)c2n1)c1ccc(C(=O)N[C@@H](CCC(=O)O)C(=O)O)cc1 [METHO, methotrexate]		significant accumulation of neutral lipids	curb this metabolic pathway	150 µM (loss of cellular ATP below 30% of the controls for this concentration, as shown in Supp. fig 1)	significantly enhance mtFAO	did not reduce						Increase of FAT/CD36 mRNA level ([5]; 50 μM): 60%; Increase of FAT/CD36 mRNA level ([5]; 150 μM): 55%; Therapeutic blood (or plasma) concentration in patients ([6]; ref Schulz M et al., Crit Care 2012 ;16(4):R136, listed as Methotrexate (METHO)): 0.04 mg/L and 0.09 µM; Maximum plasma concentration (Cmax) in patients [8, 16]: ≤ 680000 ng/mL; Cmax [8, 16]: ≤ 1500 µM; Maximum plasma concentration (Cmax) in patients [8, 17]: ≤ 594 ng/mL; Cmax [8, 17]: ≤ 1.3 µM; Concentration corresponding to 100xCmax ([9]; from Cmax of high dose chemotherapy): 150000 µM; Concentration corresponding to 100xCmax ([9]; from Cmax of rheumatoid arthritis treatment): 130 µM
CC1=C(CC(=O)O)c2cc(F)ccc2/C1=C\c1ccc([S+](C)[O-])cc1 (stereo not shown) [SUL, sulindac]	augmented mRNA abundance	significant accumulation of neutral lipids	increased DNL	1000 µM (loss of cellular ATP above 30% of the controls for higher concentrations, as shown in Supp. fig 1)		reduced the secretion	≤ 11400 ng/mL	≤ 32 µM	reduced the secretion	enhanced IRE1α mRNA level	3200 µM	Therapeutic blood (or plasma) concentration in patients ([6]; ref Schulz M et al., Crit Care 2012 ;16(4):R136, listed as Sulindac (SUL)): 1 - 5 mg/L and 2.8 - 14 µM; FASN mRNA level [10]: augmented mRNA abundance; ACACA mRNA level [11]: augmented mRNA abundance
Cc1c(C)c2c(c(C)c1O)CCC(C)(COc1ccc(CC3SC(=O)NC3=O)cc1)O2 (stereo not shown) [TRO, troglitazone]		significant accumulation of neutral lipids	curb this metabolic pathway	47.5 µM (loss of cellular ATP above 30% of the controls for higher concentrations, as shown in Supp. fig 1)	significantly enhance mtFAO	reduced the secretion	≤ 2830 ng/mL	≤ 6.4 µM	reduced the secretion	enhanced IRE1α mRNA level	640 µM	ANGPTL3 mRNA level [12]: nearly abolish the mRNA abundance; Therapeutic blood (or plasma) concentration in patients ([6]; ref Loi CM et al., J Clin Pharmacol 1999;39(9):920-6, Plosker GL and Faulds D. Drugs 1999;57(3):409-438, listed as Troglitazone (TRO)): 0.90 - 2.82 mg/L and 2.0 - 6.4 µM; Secretion of apoB (apoB secretion; 45 and 47.5 μM): less than 10 % of the respective control; MTTP mRNA level [13]: nearly abolish the mRNA abundance; Secretion of apoC3 (apoC3 secretion; 45 and 47.5 μM): less than 10 % of the respective control; Steatosis in PHH batches (six batches tested) [14]: induced steatosis in only one PHH batch; APOC3 mRNA level [15]: nearly abolish the mRNA abundance; APOB mRNA level (apolipoprotein B (APOB)): nearly abolish the mRNA abundance

Source: article PMC8012331, “Drug-induced hepatic steatosis in absence of severe mitochondrial dysfunction in HepaRG cells: proof of multiple mechanism-based toxicity” (Cell Biology and Toxicology, 2020)
